Calls of active or inactive are those of the source. The rule behind the calls is not given here.
Experiments:
[1] = target: T1, Lysine-specific histone demethylase 1A (Homo sapiens, UniProt O60341)
Description: Inhibition of human recombinant LSD1 using fluorogenic ADHP based substrate preincubated for 30 mins followed by substrate addition measured after 10 mins by horseradish peroxidase coupled fluorescence assay

[2] = target: T1, Lysine-specific histone demethylase 1A; experiment: Inhibition of LSD1 (unknown origin) by TR-FRET assay
CYP2C19 = CYP2C19 (Homo sapiens, UniProt P33261); experiment: Inhibition of CYP2C19 in human liver microsomes at 10 uM using CYP substrate preincubated for 10 mins followed by NADPH generating system addition and measured after 10 mins by LC-MS/MS analysis relative to control; type: ADME; conditions: time 20 min
MGC-803 [3] = experiment: cells; conditions: Homo sapiens, MGC-803, 72 h
Description: Antiproliferative activity against human MGC-803 cells incubated for 72 hrs by CCK8 assay

MGC-803 [4] = experiment: Antitumor activity against human MGC-803 cells xenografted in Balb/c nude mouse assessed as reduction in tumor volume at 100 mg/kg, po administered once daily via gavage for 21 days measured post last dose relative to control; type: functional; set-up: scale not given: the % may be the effect or the level left; conditions: time 21 day
A549 = experiment: cells; conditions: Homo sapiens, A549, 72 h
Description: Antiproliferative activity against human A549 cells incubated for 72 hrs by CCK8 assay

[5] = target: T2, Amine oxidase [flavin-containing] B (Homo sapiens, UniProt P27338); experiment: Inhibition of recombinant N-terminal FLAG-tagged human MAOB expressed in baculovirus infected Sf9 insect cells using luminogenic MAO substrate measured after 1 hr by MAO-glo assay
T2 sequence (P27338 whole entry): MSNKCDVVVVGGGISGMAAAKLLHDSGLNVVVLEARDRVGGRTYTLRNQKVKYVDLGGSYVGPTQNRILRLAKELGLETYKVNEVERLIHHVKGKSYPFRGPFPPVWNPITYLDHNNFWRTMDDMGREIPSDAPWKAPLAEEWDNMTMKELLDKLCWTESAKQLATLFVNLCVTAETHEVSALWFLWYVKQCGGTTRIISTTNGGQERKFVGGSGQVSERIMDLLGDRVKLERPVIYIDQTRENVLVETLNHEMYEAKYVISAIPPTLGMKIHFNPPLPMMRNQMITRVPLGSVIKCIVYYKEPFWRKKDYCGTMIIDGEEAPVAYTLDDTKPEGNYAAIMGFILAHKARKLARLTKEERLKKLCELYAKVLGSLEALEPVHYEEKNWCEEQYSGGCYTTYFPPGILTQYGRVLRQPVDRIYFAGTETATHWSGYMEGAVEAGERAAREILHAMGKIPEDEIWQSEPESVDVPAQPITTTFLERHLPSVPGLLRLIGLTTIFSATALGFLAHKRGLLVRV

[6] = target: T1, Lysine-specific histone demethylase 1A; experiment: Inhibition of LSD1 in human MGC-803 cells assessed as increase in H3K4me2 accumulation measured after 72 hrs by Western blot analysis; type: cell-based
CYP1A2 = target: T3, CYP1A2 (Homo sapiens, UniProt P05177); experiment: Inhibition of CYP1A2 in human liver microsomes at 10 uM using CYP substrate preincubated for 10 mins followed by NADPH generating system addition and measured after 10 mins by LC-MS/MS analysis relative to control; type: ADME; conditions: time 20 min
T3 sequence (P05177 whole entry): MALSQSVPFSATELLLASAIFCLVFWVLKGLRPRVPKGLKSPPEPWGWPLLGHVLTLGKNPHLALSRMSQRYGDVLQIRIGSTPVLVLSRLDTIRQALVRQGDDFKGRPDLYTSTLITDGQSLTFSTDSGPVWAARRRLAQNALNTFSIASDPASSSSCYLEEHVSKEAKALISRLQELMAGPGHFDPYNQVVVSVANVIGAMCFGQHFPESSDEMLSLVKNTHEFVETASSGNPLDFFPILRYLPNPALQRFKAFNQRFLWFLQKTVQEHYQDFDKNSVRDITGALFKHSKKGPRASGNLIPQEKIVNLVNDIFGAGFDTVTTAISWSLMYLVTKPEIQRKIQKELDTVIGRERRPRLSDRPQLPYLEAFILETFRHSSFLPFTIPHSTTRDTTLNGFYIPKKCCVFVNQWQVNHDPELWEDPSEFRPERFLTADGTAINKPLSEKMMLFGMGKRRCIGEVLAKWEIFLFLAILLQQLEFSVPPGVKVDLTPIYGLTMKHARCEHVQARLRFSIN

MCF7 = experiment: cells; conditions: Homo sapiens, MCF7, 72 h
Description: Antiproliferative activity against human MCF7 cells incubated for 72 hrs by CCK8 assay

MGC-803 [7] = experiment: Cell cycle arrest in human MGC-803 cells assessed as increase in S phase accumulation at 4 uM after 72 hrs by propidium iodide staining based flow cytometry; type: functional
MGC-803 [8] = experiment: Induction of apoptosis in human MGC-803 cells assessed as apoptotic rate at 4 uM after 72 hrs by Annexin V-FITC/propidium iodide staining based flow cytometry relative to control; type: functional
[9] = Toxicity in human MGC-803 cells xenografted Balb/c nude mouse assessed as body weight loss at 50 to 100 mg/kg, po administered once daily via gavage for 21 days measured at 3 days interval during compound dosing; type: organism-based; conditions: in vivo, 504 h, dose 50-100 mg/kg, time 21 day
CYP3A4 = CYP3A4 (Homo sapiens, UniProt P08684); experiment: Inhibition of CYP3A4 in human liver microsomes at 10 uM using CYP substrate preincubated for 10 mins followed by NADPH generating system addition and measured after 10 mins by LC-MS/MS analysis relative to control; type: ADME; conditions: time 20 min
[10] = target: T4, Amine oxidase [flavin-containing] A (Homo sapiens, UniProt P21397); experiment: Inhibition of recombinant N-terminal FLAG-tagged human MAOA expressed in baculovirus infected Sf9 insect cells using luminogenic MAO substrate measured after 1 hr by MAO-glo assay
T4 sequence (P21397 whole entry): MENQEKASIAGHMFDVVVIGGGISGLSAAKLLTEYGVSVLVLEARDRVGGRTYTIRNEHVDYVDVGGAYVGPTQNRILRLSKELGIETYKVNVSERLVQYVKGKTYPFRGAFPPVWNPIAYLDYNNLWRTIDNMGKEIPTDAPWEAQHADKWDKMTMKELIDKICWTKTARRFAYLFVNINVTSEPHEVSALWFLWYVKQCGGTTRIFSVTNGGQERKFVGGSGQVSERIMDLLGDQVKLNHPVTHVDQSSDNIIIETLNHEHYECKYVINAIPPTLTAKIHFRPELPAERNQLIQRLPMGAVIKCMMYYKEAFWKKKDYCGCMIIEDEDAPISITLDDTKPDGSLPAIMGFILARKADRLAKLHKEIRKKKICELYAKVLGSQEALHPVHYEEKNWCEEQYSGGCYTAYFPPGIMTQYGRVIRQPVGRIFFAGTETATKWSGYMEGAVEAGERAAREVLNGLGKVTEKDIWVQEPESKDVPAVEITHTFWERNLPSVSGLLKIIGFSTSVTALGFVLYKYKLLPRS

MGC-803 [11] = experiment: Induction of apoptosis in human MGC-803 cells after 72 hrs by Annexin V-FITC/propidium iodide staining based flow cytometry; type: functional, cell-based
THP-1 = experiment: cells; conditions: Homo sapiens, THP-1, 72 h
Description: Antiproliferative activity against human THP-1 cells incubated for 72 hrs by CCK8 assay

[12] = Stability in human liver microsomes assessed as parent compound remaining preincubated for 10 mins followed by NADPH regenerating system addition and measured up to 60 mins by LC-MS/MS analysis; type: ADME, Microsome; conditions: time 10-70 min, read-out: Stabilty
CYP2D6 = CYP2D6 (Homo sapiens, UniProt P10635); experiment: Inhibition of CYP2D6 in human liver microsomes at 10 uM using CYP substrate preincubated for 10 mins followed by NADPH generating system addition and measured after 10 mins by LC-MS/MS analysis relative to control; type: ADME; conditions: time 20 min
[13] = Half life in human liver microsomes preincubated for 10 mins followed by NADPH regenerating system addition and measured up to 60 mins by LC-MS/MS analysis; type: ADME, Microsome; conditions: time 10-70 min
[14] = Stability in human liver microsomes assessed as parent compound remaining measured 60 mins after mins by LC-MS/MS analysis; type: ADME, Microsome; conditions: microsomes, 1 h
[15] = Intrinsic clearance in human microsomes preincubated for 10 mins followed by NADPH regenerating system addition and measured up to 60 mins by LC-MS/MS analysis; type: ADME, Microsome; conditions: time 10-70 min
PC-3 = experiment: cells; conditions: Homo sapiens, PC-3, 72 h
Description: Antiproliferative activity against human PC-3 cells incubated for 72 hrs by CCK8 assay

MGC-803 [16] = experiment: Cell cycle arrest in human MGC-803 cells assessed as decrease in G2/M phase accumulation at 4 uM after 72 hrs by propidium iodide staining based flow cytometry; type: functional
NB-4 = experiment: cells; conditions: Homo sapiens, NB-4, 72 h
Description: Antiproliferative activity against human NB-4 cells incubated for 72 hrs by CCK8 assay

CYP2C9 = CYP2C9 (Homo sapiens, UniProt P11712); experiment: Inhibition of CYP2C9 in human liver microsomes at 10 uM using CYP substrate preincubated for 10 mins followed by NADPH generating system addition and measured after 10 mins by LC-MS/MS analysis relative to control; type: ADME; conditions: time 20 min
MGC-803 [17] = experiment: Antitumor activity against human MGC-803 cells xenografted in Balb/c nude mouse assessed as reduction in tumor weight at 100 mg/kg, po administered once daily via gavage for 21 days measured post last dose relative to control; type: functional; set-up: scale not given: the % may be the effect or the level left; conditions: time 21 day

CYP2C19, sequence (P33261 whole entry): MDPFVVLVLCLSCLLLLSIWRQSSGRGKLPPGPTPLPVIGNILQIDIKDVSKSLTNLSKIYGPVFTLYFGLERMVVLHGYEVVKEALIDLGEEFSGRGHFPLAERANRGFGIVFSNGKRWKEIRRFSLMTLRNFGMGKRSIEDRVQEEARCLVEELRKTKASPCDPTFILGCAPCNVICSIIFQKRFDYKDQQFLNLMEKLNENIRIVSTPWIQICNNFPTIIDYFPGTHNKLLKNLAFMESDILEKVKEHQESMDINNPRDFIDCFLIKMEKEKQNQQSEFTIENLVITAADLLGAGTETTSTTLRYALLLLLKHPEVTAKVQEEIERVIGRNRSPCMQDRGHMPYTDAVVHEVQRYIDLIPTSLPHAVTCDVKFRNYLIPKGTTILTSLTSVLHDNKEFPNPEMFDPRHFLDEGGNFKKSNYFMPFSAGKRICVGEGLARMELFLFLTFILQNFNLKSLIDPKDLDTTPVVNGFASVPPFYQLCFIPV
CYP3A4, sequence (P08684 whole entry): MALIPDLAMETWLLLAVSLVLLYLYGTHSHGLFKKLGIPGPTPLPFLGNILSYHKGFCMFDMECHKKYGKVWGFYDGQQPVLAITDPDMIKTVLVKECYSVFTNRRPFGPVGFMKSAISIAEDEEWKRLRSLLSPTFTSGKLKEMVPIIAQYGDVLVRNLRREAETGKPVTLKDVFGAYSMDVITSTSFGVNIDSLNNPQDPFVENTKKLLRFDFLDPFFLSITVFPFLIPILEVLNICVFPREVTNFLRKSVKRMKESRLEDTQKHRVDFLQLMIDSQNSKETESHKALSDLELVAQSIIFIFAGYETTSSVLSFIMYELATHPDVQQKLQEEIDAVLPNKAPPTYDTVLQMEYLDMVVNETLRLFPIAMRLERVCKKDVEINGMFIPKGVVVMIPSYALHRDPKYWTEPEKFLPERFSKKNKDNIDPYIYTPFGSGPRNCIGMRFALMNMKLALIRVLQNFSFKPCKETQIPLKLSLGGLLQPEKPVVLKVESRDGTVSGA
CYP2D6, sequence (P10635 whole entry): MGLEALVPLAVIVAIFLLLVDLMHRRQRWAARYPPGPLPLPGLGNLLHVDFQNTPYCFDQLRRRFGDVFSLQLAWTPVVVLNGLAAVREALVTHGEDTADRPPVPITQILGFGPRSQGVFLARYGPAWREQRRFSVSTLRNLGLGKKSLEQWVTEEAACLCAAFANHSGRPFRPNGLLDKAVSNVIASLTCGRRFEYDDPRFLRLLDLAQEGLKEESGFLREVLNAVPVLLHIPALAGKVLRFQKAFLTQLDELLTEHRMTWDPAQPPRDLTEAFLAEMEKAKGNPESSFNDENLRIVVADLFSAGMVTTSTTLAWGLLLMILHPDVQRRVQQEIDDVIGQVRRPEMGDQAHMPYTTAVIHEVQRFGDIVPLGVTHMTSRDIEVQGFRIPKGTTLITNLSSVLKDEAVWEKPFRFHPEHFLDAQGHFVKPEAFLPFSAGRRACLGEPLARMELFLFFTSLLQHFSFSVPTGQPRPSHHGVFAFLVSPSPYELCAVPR
CYP2C9, sequence (P11712 whole entry): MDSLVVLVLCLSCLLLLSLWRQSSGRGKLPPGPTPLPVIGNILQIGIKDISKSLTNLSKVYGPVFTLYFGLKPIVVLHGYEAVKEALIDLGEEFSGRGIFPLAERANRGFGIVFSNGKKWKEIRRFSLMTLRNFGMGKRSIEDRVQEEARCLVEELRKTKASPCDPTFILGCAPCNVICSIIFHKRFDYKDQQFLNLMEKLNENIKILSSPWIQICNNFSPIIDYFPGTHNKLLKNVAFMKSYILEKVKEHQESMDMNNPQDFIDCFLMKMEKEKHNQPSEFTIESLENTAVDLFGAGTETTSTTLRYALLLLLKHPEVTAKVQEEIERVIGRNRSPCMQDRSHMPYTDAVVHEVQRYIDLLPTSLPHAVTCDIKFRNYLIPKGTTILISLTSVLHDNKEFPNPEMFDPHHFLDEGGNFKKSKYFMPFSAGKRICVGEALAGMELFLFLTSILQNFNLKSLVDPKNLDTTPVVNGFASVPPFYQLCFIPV

CCOCc1cccc(NC(=O)c2cc3sccc3n2C)c1COc1ccc(OC[C@H]2CCNC2)cc1
IC50 [1]: 0.0001 µM | IC50 [2]: 0.0078 µM

Cn1c(C(=O)Nc2cccc3c2N(Cc2ccc(OC4CCNCC4)cc2)CCC3)cc2cc(F)ccc21
inhibition at 10 min, 10 µM (CYP2C19): 16.1% | IC50 (MGC-803 [3]): 1.75 µM | Activity (MGC-803 [4]): 28.6% | IC50 (A549): 3.01 µM | IC50 [5]: > 50 µM | inhibition [6]: Dose-dependent effect | inhibition at 10 min, 10 µM (CYP1A2): 4.6% | IC50 (MCF7): 9.49 µM | IC50 [1]: 0.00054 µM | Activity (MGC-803 [7]): Active | Activity (MGC-803 [8]): 24.86% | Activity [9]: Non-Toxic | inhibition at 10 min, 10 µM (CYP3A4): 40.1% | IC50 [10]: > 50 µM | Activity (MGC-803 [11]): Dose-dependent effect | IC50 (THP-1): 9.63 µM | remaining at 1 h [12]: 57.5% | inhibition at 10 min, 10 µM (CYP2D6): 6.1% | half-life [13]: 1.03 h | Stabilty [14]: 122.6% | microsomal CLint [15]: 22.4 µL/min/mg | IC50 (PC-3): 4.29 µM | Activity (MGC-803 [16]): Active | IC50 (NB-4): 1.13 µM | inhibition at 10 min, 10 µM (CYP2C9): 0% | Activity (MGC-803 [17]): 28.1%
